Laboratory results reported in patent publication US20260174682A1, “GAMMA-AMINOBUTYRIC ACID DERIVATIVE COMPRISING POLYCYCLIC STRUCTURE, METHOD FOR PREPARING SAME, AND USE THEREOF” (ZHONGSHAN INSTITUTE FOR DRUG DISCOVERY, SIMM, CAS., priority 2022, published 2026).
Marks after values point to notes of the source that are not given here.

Experiments:
[1] = target: T1, human recombinant calcium ion channel Cav2.2/β3/α2δ-1 (Homo sapiens, UniProt P54289); test: In vitro binding to human recombinant calcium ion channel Cav2.2/β3/α2δ-1 ([3H]gabapentin competition); details: inhibition of binding of 5 nM [3H]gabapentin, CHO cell membranes, 25° C., 120 min; read-out: IC50
T1 construct: expressed in transfected cells; host or cells: CHO cells (membranes)
T1 sequence (P54289 25-956 limits assumed): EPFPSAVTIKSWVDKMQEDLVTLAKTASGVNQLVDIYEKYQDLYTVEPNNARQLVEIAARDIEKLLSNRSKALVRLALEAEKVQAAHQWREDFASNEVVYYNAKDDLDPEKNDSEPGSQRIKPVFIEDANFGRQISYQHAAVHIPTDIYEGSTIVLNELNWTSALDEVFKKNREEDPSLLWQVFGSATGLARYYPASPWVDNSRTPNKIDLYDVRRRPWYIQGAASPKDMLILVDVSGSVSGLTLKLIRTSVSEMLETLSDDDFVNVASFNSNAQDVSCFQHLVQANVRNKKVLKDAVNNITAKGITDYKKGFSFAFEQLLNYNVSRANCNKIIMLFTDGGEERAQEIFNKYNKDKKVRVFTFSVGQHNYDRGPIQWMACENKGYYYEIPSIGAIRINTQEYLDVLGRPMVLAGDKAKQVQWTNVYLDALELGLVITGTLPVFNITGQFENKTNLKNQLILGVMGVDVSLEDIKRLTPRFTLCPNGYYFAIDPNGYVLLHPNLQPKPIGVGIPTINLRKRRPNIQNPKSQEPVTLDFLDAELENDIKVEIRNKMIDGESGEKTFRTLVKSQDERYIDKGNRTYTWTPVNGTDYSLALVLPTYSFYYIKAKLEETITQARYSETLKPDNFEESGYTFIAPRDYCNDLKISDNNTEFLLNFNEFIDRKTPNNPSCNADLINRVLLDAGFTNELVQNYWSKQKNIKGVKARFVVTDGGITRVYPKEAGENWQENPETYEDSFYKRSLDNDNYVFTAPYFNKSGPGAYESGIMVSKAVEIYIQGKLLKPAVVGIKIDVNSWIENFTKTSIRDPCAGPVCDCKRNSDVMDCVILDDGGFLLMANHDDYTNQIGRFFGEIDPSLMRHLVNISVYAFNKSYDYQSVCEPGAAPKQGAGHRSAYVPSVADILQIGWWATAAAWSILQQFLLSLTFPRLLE
T1 sequence (P54289 957-1103 partner limits assumed): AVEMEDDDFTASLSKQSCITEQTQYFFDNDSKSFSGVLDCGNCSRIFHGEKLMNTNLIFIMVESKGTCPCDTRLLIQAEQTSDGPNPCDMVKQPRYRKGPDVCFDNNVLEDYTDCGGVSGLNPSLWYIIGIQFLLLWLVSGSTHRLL
T1 sequence (Q00975 whole entry partner): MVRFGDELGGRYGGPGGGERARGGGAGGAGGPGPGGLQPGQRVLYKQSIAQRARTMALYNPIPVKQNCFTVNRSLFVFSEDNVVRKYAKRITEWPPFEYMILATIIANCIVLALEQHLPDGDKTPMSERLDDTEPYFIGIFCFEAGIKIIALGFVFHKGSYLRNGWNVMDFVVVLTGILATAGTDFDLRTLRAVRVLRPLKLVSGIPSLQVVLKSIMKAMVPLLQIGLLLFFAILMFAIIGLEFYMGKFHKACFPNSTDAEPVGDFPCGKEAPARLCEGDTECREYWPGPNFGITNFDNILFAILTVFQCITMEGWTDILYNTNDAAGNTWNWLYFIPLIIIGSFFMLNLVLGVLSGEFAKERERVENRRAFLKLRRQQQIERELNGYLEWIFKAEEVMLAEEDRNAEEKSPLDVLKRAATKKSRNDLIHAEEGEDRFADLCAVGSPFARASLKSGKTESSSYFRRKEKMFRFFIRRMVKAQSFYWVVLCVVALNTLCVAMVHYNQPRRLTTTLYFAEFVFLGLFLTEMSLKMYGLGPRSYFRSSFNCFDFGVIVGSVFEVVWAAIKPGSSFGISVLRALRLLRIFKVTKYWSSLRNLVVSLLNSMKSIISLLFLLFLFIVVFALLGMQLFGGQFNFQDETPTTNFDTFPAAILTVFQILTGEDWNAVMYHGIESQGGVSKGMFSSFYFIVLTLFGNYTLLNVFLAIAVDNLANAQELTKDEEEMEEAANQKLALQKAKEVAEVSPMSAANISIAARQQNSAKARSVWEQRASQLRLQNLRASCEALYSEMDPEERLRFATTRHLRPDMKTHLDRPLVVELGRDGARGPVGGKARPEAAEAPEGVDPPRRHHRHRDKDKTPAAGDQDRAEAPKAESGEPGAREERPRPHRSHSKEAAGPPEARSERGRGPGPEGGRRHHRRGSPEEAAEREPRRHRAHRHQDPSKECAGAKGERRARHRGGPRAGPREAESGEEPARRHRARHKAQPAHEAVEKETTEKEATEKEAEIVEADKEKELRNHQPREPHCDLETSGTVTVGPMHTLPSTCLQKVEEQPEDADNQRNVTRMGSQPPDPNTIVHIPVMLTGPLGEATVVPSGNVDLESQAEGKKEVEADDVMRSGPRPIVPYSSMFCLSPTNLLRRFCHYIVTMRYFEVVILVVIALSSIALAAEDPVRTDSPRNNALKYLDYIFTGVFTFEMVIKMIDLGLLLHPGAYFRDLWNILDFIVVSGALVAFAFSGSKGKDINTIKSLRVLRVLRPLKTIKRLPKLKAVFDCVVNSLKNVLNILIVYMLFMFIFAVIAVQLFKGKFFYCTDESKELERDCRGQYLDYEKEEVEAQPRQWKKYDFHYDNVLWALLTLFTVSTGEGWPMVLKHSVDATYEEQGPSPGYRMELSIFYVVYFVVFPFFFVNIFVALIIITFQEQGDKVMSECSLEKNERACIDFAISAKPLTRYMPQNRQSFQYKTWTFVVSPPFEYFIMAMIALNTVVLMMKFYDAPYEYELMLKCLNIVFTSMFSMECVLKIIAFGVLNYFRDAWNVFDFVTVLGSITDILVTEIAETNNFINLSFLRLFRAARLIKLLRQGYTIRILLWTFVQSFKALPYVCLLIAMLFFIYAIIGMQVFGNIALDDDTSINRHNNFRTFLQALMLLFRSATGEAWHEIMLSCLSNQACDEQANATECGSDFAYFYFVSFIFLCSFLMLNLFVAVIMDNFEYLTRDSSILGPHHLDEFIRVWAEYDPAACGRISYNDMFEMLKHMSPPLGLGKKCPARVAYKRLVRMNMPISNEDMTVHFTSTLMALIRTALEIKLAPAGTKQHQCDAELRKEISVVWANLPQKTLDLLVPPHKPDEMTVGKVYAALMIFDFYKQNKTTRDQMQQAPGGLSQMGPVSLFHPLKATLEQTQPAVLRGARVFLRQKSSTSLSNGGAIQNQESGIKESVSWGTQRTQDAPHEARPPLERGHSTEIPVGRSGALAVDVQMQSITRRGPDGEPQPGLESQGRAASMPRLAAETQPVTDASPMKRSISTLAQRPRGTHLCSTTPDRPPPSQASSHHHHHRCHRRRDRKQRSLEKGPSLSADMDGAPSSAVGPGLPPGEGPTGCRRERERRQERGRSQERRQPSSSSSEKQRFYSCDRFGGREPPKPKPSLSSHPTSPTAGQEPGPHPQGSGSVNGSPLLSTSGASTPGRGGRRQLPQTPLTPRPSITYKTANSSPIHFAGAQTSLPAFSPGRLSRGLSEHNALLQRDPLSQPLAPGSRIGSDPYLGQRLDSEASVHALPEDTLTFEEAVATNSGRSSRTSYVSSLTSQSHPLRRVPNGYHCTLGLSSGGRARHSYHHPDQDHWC
T1 sequence (P54284 whole entry partner): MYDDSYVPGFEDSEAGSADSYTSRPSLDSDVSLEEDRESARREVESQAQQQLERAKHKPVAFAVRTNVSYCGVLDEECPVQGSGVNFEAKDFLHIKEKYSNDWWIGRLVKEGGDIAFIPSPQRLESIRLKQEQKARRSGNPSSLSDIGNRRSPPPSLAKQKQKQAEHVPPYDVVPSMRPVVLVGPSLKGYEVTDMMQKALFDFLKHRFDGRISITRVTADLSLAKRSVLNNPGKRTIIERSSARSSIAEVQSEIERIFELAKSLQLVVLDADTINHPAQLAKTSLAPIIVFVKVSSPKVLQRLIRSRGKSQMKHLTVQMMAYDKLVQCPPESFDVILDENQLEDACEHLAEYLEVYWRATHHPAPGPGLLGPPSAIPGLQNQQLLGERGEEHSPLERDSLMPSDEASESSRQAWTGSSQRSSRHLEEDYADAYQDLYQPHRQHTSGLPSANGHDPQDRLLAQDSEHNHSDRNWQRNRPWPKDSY
From the text: Example 28 In Vitro Binding of Compounds to Human Recombinant Calcium Ion Channel Cav2.2/β3/α2δ-1
There are four subtypes of the voltage-gated calcium ion channel α2δ subunit, α2δ-1, α2δ-2, α2δ-3 and α2δ-4, in which α2δ-1 is the subtype that mediates chronic neuropathic pain (Field, M. J. et al.; Proc. Natl. Acad. Sci. U.S.A. 2006, 103, 17537-17542). Therefore, the binding strength of a compound to α2δ-1 is a direct indicator for measuring an analgesic effect thereof on the chronic neuropathic pain (Calandre, E. P. et al.; Expert Rev. Neuroether. 2016, 16, 1263-1277).
The in vitro binding strength of the compound of the present application to human recombinant calcium ion channel Cav2.2/β3/α2δ-1 is basically operated according to a reported method (Gee, N. S. et al.; J. Biol. Chem. 1996, 271, 5768-5776; Marais, E. et al.; Mol. Pharmacol. 2001, 59, 1243-1248). CHO cells expressing the human recombinant calcium ion channel Cav2.2/β3/α2δ-1 were used in the test. After routine separation of cell membranes, 3 μg of the cell membranes were added into each well with a modified HEPES/KOH buffer solution (pH 7.4) as a solution of the test system. Then, 5 nM [^3H]gabapentin and the compound to be tested at 6 concentrations (3, 9, 27, 81, 243, and 729 nM) were added, and the test system was incubated at 25° C. for 120 min. Non-specific binding was obtained by replacing the compound to be tested in the above test system with […] gabapentin. After the incubation was completed, the cell membranes were collected by filtration and washed with 50 mM Tris-HCl (pH 7.4), and then the radioactivity of [^3H]gabapentin bound to the cell membranes was tested by a liquid scintillation technology. […] An inhibition rate of the compound of the present application on the binding of the [^3H]gabapentin to the human recombinant calcium ion channel Cav2.2/β3/α2δ-1 was calculated according to the following formula: […]
wherein • I is the radioactivity corresponding to that the compound to be tested and [^3H]gabapentin are simultaneously co-incubated with the human recombinant calcium ion channel Cav2.2/β3/α2δ-1, • I0 is the radioactivity corresponding to co-incubation of [^3H]gabapentin and the human recombinant calcium ion channel Cav2.2/β3/α2δ-1 without adding the compound to be tested into the incubation system, and • IU is the radioactivity corresponding to that 10 μM gabapentin and [^3H]gabapentin are simultaneously co-incubated with the human recombinant calcium ion channel Cav2.2/β3/α2δ-1.
The concentration of the compound to be tested that inhibits 50% of the binding of [^3H]gabapentin to the human recombinant calcium ion channel Cav2.2/β3/α2δ-1 is defined as IC50, and the IC50 is calculated by nonlinear least squares regression analysis using the above inhibition rate (MathIQ™, ID Business Solutions Ltd., UK).

[2] = system: Sprague Dawley (SD) rat spared nerve injury (SNI) model; test: Analgesic effect in rat spared nerve injury (SNI) chronic neuropathic pain model; format: in vivo; details: SNI rats; for maximum possible effect (% MPE) / area under the mechanical pain threshold-time curve compared with the vehicle control group: oral gavage 30 mg/kg (calculated by free base); for maximum possible effect (% MPE) / maximum possible effect (MPE): from AUC of mechanical pain threshold-time curve to 24 h; for maximum possible effect (MPE): oral gavage 10 mg/kg (calculated by free base)
Protocol: Establishment of the SNI model: Surgery was performed according to an aseptic operation method, and various surgical instruments, including scalpels, tweezers, suture needles/threads, surgical cotton, etc., were disinfected before the surgery. Animals were anesthetized by intraperitoneal injection of a Zoletil™ 50 solution at 50 mg/kg and then placed in lateral decubitus positions. After hair in surgical areas of lower bodies of animals was shaved, the animals were disinfected alternately with iodophor and 75% alcohol. The skin was cut at upper edges of left hind limbs, muscles were bluntly separated to expose a sciatic nerve trunk and 3 branches thereof, i.e., a tibial nerve, a common peroneal nerve and a sural nerve. The tibial nerve and the common peroneal nerve were ligated and cut, and the sural nerve was preserved and maintained intact. After the surgery, wounds were sutured layer by layer, the animals were administered with 25% ampicillin (1 mL/kg) through intraperitoneal injection to prevent infection, and routine nursing was performed. In sham group, only the sciatic nerve and the branches thereof were exposed, the nerves were not ligated and cut, and other operations were the same as those in the model group. Detection of a mechanical pain threshold: A Von-frey test fiber was used to detect the mechanical pain threshold of the sole of an operative side of each animal on day 1, day 3 and day 7 after the surgery, respectively. An “up-and-down” method was used as a method of detecting the mechanical pain threshold at the stimulation intensity of 0.4, 0.6, 1, 2, 4, 6, 8, and 15 g. During the test, the test fiber was used to vertically stimulate the site, close to an outer side, in the sole center of the left hind paw of a rat for 6-8 seconds each time at an interval of 5 seconds. A pain response was shown as an obvious paw withdrawal, paw licking, or paw lifting behavior of the animals during each test. From day 11 after the surgery, the animals were placed in an experimental environment for adaptation, wherein the adaptation was performed continuously for 15 min per day for 3 days. On day 13, a basic value of mechanical pain hypersensitivity was detected after the adaptation was completed. The mechanical pain hypersensitivity was expressed by a 50% paw-withdrawal threshold (PWT) according to a calculation formula of 50% PWT (g)=10^xf+kδ, wherein xf is a log value of a fiber test force, k is a tabular value, and δ is an average spacing of the log value of the fiber test force.
Pharmacodynamic evaluation: According to basic threshold detection results on day 13 after the surgery, the animals in the model group without the mechanical pain hypersensitivity, that is, the PWT was greater than 4 g, were excluded, and the other successfully modeled animals were used for a formal test. On day 14 after the surgery, various compound to be tested were newly formulated. Pregabalin was directly dissolved with 0.9% sodium chloride at a dose of 30 mg/kg to obtain a solution at a desired concentration. (±)—I-7, (±)—I-3 and (±)—I-4 p-toluenesulfonate were also completely dissolved with a 0.9% sodium chloride solution at a dose of 30 mg/kg (calculated by free base). The successfully modeled animals were randomly divided into 5 groups with 8 animals in each group. In addition, 7 animals were selected in the sham group. […] The mechanical pain hypersensitivity response of the left hind paw was detected at 1 h, 2 h, 4 h, 6 h, 8 h, 10 h, and 24 h after the administration. Evaluation was performed by using a blind method, and a detection method was the same as above. An area under a mechanical pain threshold-time curve (AUC) was calculated using GraphPad Prism Version 8.0.1 software.

male SD rats = test: Acute toxicity test on rats; details: oral gavage 300 mg/kg (calculated by free base)
Protocol: After adapting to the environment for one week, the SD rats were used in a preliminary acute toxicity test. The compounds were newly formulated on the day of the test. […] After being labeled and weighed, the animals were randomly grouped with 2-4 animals in each group. […] Clinical symptoms of each animal were observed and recorded at 0.5 hours, 1 hour, 2 hours, 4 hours, 6 hours and 24 hours after the administration, respectively. Clinical symptom codes were as follows: 0 no abnormality, 1 mild tremor, 2 unsteady gait, 3 prone position, 4 startle reflex, 5 difficult breathing, 6 righting reflex disappeared, 7 eyelid closure, 8 shortness of breath, and x animal death.

[3] = system: mouse 6-Hz psychomotor seizure model; test: Antiepileptic effect in mouse 6-Hz psychomotor seizure model; format: in vivo; details: 6-Hz model, C57BL/6 mice, gavage, dose 200 mg/kg
Protocol: A negative vehicle control group, a positive drug control group (pregabalin and gabapentin) and a test group of the compounds of the present application were set. Male C57BL/6 mice with a body weight of 20±2 g were selected. […] After fasted for 12 h, the mice were administered the compounds of the present application or the control drugs, and then subjected to 6-Hz electrical stimulation to induce epilepsy seizure behaviors after a certain time interval (2 h for pregabalin, 1 h for gabapentin, 1 h for levetiracetam, and 3 h for the compounds of the present application). In an induction model, when the stimulation was performed with a Model 4100 stimulator (A-M Systems, the United States), rear necks of the mice were immobilized by hands on a feeding cage, a corneal electrode was moisten with normal saline and allowed to gently contact bilateral corneas of the mice, the electrical stimulator was trod by a foot to give the mice the electrical stimulation with a stimulation parameter of 6-Hz, a one-way square wave of 32 mA, a wave width of 0.2 ms and a stimulation duration of 3 sec, and timing was performed with a stopwatch during the stimulation. After the electrical stimulation was completed, the mice with the seizure behaviors lasting for less than 7 sec were regarded as being protected by the drugs, and the mice with the seizure behaviors lasting for more than 7 sec were regarded as being not protected from the epilepsy by the drugs. Response situations of the animals were observed and recorded, and obtained data were counted to calculate protection rates of the compounds.
Statistical method: The protection rates of different administration groups were separately compared with that of the vehicle control group to carry out a Fisher's exact test.

| IC50 [1] [nM] | SMILES | further results |
| --- | --- | --- |
| 450 | NCC1(CC(=O)O)CC2C3CCC(CC3)C21 (racemic) [(±)-I-5] | – |
| 300 | NCC1(CC(=O)O)CC2C3C=CC(CC3)C21 (racemic) [(±)-I-6 p-toluenesulfonate] | – |
| > 729 | CC1=C(C)C2(C)C3C(CC3(CN)CC(=O)O)C1(C)C2C (racemic) [(±)-I-8] | – |
| > 729 | NCC1(CC(=O)O)CC2C1C1C=CC2C12CC2 (racemic) [(±)-I-9 p-toluenesulfonate] | – |
| > 729 | NCC1(CC(=O)O)CC2C1C1CCC2C12CC2 (racemic) [(±)-I-10] | – |
| 600 | CC1(C)C2CC[C@@H]1[C@H]1C2CC1(CN)CC(=O)O (mixture of isomers) [(±)-I-14] | – |
| 580 | CC1(C)C2C=CC1C1C2CC1(CN)CC(=O)O (racemic) [(±)-I-15 p-toluenesulfonate] | – |
| 477 | CC1C2CC[C@@H]1[C@H]1C2CC1(CN)CC(=O)O (mixture of isomers) [(±)-I-16] | – |
| 453 | CC1C2C=CC1C1C2CC1(CN)CC(=O)O (racemic) [(±)-I-17 p-toluenesulfonate] | – |
| > 729 | CC1=C(C)C2(C)CC1(C)C1CC(CN)(CC(=O)O)C12 (racemic) [(±)-I-18] | – |
| > 729 | CC1=C(C)C2(C)C3C(CC3(CN)CC(=O)O)C1(C)C2(C)C (racemic) [(±)-I-19] | – |

More lines, now with the values behind:

| SMILES | IC50 [1] [nM] | further results |
| --- | --- | --- |
| NCC1(CC(=O)O)CC2C3CCC(C3)C21 (racemic) [(±)-I-1] | > 729 | – |
| NCC1(CC(=O)O)C[C@@H]2C1C1C=C[C@H]2C1 (mixture of isomers) [(±)-I-2] | 470 | – |
| NCC1(CC(=O)O)CC2C3CC[C@@H](C3)[C@@H]21 (mixture of isomers) [(±)-I-3] | 15.2 | maximum possible effect (% MPE) [2]: 44.80% |
| Cc1ccc(S(=O)(=O)O)cc1.NCC1(CC(=O)O)CC2C3C=CC(C3)C21 (racemic) [(±)-I-4 p-toluenesulfonate] | – | area under the mechanical pain threshold-time curve compared with the vehicle control group [2]: significantly improved; maximum possible effect (% MPE) [2]: 95.95% |
| NCC1(CC(=O)O)CC2C3C[C@H]([C@H]4C[C@H]34)[C@@H]21 (mixture of isomers) [(±)-I-7] | 70 | area under the mechanical pain threshold-time curve compared with the vehicle control group [2]: significantly improved; maximum possible effect (% MPE) [2]: 73.63%; animal death (male SD rats): no animals are dead; Observation of clinical symptoms 0.5 h (male SD rats; per animal): 0; Observation of clinical symptoms 2 h (male SD rats; per animal): 3; Observation of clinical symptoms 4 h (male SD rats; per animal): 0; Observation of clinical symptoms 6 h (male SD rats; per animal): 0; Observation of clinical symptoms 24 h (male SD rats; per animal): 0; Observation of clinical symptoms 1 h (male SD rats; per animal, 300 mg/kg): 3 |
| NCC1(CC(=O)O)CC2C3C=CC(C3)C21 (racemic) [(±)-I-11 p-toluenesulfonate] | > 729 | – |
| NCC1(CC(=O)O)CC2C3CCC(C3)C21 (racemic) [(±)-I-12] | > 729 | – |
| Cc1ccc(S(=O)(=O)O)cc1.NCC1(CC(=O)O)CC2C3CCC(C3)C21 (single isomer, unassigned; (-)) [(−)-I-3 p-toluenesulfonate] | > 243 | maximum possible effect (MPE) [2]: 30.22% |
| NCC1(CC(=O)O)CC2C3C=CC(C3)C21 (single isomer, unassigned; (-)) [(−)-I-4 p-toluenesulfonate] | > 243 | maximum possible effect (MPE) [2]: 18.53% |
| CC[C@@H](C(N)=O)N1CCCC1=O [Levetiracetam] | – | Number of animals with clonic seizures/total number [3]: 3/11**; Protection rate (%) [3]: 72.7 *** % |
